Source: US8716289B2, “Carbamate derivatives of alkyl-heterocycles, preparation thereof and therapeutic use thereof” (Sanofi, priority 2008, dated 2014)

Experiments:
[1] = target: T1, enzyme FAAH (Fatty Acid Amide Hydrolase) (Mus musculus, UniProt O08914); test: FAAH radioenzymatic test, hydrolysis of anandamide [ethanolamine 1-3H] (Protocol 1); type: biochemical; conditions: mouse brain membrane homogenate, anandamide 10 μM, preincubation 20 min at 25° C.
T1 construct: The membrane homogenates are prepared extemporaneously by homogenizing the tissues; from tissue; host or cells: mouse brain (minus the cerebellum), membrane homogenate
T1 sequence (O08914 1-579): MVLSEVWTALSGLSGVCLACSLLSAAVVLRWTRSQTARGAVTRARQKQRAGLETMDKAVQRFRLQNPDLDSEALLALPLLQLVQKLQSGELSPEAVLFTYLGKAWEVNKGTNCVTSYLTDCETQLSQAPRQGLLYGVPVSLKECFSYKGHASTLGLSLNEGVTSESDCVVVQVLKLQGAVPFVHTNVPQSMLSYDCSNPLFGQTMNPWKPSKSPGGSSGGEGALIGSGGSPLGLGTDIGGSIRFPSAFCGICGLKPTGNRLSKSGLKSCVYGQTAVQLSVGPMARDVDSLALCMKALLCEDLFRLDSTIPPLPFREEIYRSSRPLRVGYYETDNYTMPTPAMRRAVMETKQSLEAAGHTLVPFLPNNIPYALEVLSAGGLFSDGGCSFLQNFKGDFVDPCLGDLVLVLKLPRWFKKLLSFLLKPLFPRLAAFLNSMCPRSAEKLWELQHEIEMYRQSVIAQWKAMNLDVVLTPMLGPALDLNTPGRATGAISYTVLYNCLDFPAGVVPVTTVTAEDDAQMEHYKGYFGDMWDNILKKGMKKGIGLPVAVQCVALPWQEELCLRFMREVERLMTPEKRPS
Protocol: Thus, mouse brains (minus the cerebellum) are removed and stored at −80° C. The membrane homogenates are prepared extemporaneously by homogenizing the tissues using a Precellys® machine in reaction buffer (10 mM Tris-HCl, pH=8, 150 mM NaCl and 1 mM ethylenediaminetetraacetic acid (EDTA)). The enzymatic reaction is performed in 96-well Multiscreen filtration plates in a final volume of 70 μL. Reaction buffer supplemented with fatty acid-free bovine serum albumin (BSA, 1 mg/ml) is used for the enzymatic reaction and the dilution of the compounds and of the anandamide [ethanolamine 1-^3H]. The reaction buffer containing BSA (43 μL/well), the diluted test compounds at different concentrations (7 μL/well containing 1% DMSO) and the membrane preparation (10 μL/well, i.e. […] of tissue per test) are successively added to the wells. After preincubation for 20 minutes of the compounds with the enzyme at 25° C., the reaction is started by adding anandamide [ethanolamine 1-^3H]. (Specific activity of 15-20 Ci/mmol) diluted with cold anandamide (10 μL/well, final concentration of 10 μM, 0.01 ρCi per test). After incubation for 20 minutes at 25° C., the enzymatic reaction is stopped by adding a […] solution of active charcoal prepared in 1.5M NaCl buffer and 0.5 M HCl (50 μL/well). The mixture is stirred for 10 minutes and the aqueous phase containing the ethanolamine [1-^3H] is then recovered by filtration under vacuum and counted by liquid scintillation.

[2] = tested on: male OF1 mice; test: test of analgesia: PBQ-induced abdominal stretching; type: in vivo, mouse; conditions: 30 mg/kg p.o. at 120 minutes
Protocol: The in vivo activity of the compounds of the invention was evaluated in a test of analgesia.
Thus, the intraperitoneal (i.p.) administration of PBQ (phenylbenzoquinone, 2 mg/kg in 0.9% sodium chloride solution containing 5% ethanol) to male OF1 mice weighing 25 to 30 g causes abdominal stretching, on average 30 torsions or contractions within a period of 5 to 15 minutes after injection. The test compounds are administered orally (p.o.) or intraperitoneally (i.p.) suspended in Tween 80 at 0.5%, 60 minutes or 120 minutes before the administration of PBQ. Under these conditions, the compounds of the invention that are the most powerful reduce by 30% to 80% the number of stretches induced with PBQ, over a dose range of between 1 and 30 mg/kg.

SMILES	IC50 [1] [nM]	melting point [°C]	reduction of the number of stretches induced with PBQ [2] [%]
CN1CCN(C(=O)c2cc(COC(=O)NCCC3CCN(c4ccc(-c5ccc(F)cc5)cn4)CC3)on2)CC1 [Compound 46]	16	–	–
CCC1(CCNC(=O)OCc2cc(C(=O)NC)no2)CCN(c2cnc3cc(Cl)ccc3n2)CC1 [Compound 64]	3	–	–
Cn1ncnc1COC(=O)NCCC1CCN(c2ccc3cc(Cl)ccc3n2)CC1 [Compound 2, 2-methyl-2H-[1,2,4]triazol-3-ylmethyl 2-[1-(6-chloroquinolin-2-yl)piperidin-4-yl]ethylcarbamate]	40	122 to 124	–
O=C(NCCC1CCN(c2ccc(-c3ccc(F)cc3)cn2)CC1)OCc1csnn1 [Compound 9, [1,2,3]thiadiazol-4-ylmethyl 2-[5′-(4-fluorophenyl)-3,4,5,6-tetrahydro-2H-[1,2′]bipyridinyl-4-yl]ethylcarbamate]	2	139 to 141	–
O=C(NCCC1CCN(c2ccc3cc(Cl)ccc3n2)CC1)OCc1nnc(-c2ccc(F)cc2)o1 [Compound 12, 5-(4-fluorophenyl)[1,3,4]oxadiazol-2-ylmethyl 2-[1-(6-chloroquinolin-2-yl)piperidin-4-yl]ethylcarbamate]	47	169 to 170	–
NC(=O)c1cc(COC(=O)NCCC2CCN(c3ccc4cc(Cl)ccc4n3)CC2)on1 [Compound 1, 3-carbamoylisoxazol-5-ylmethyl 2-[1-(6-chloroquinolin-2-yl)piperidin-4-yl]ethylcarbamate]	1	220 to 222	55
CCc1noc(COC(=O)NCCC2CCN(c3ccc(-c4ccc(F)cc4)cn3)CC2)n1 [Compound 5, 3-ethyl[1,2,4]oxadiazol-5-ylmethyl 2-[5′-(4-fluorophenyl)-3,4,5,6-tetrahydro-2H-[1,2′]bipyridinyl-4-yl]-ethylcarbamate]	2	110 to 112	–
NC(=O)c1cc(COC(=O)NCCC2CCN(c3ccc(-c4ccc(F)cc4)cn3)CC2)on1 [Compound 19, 3-carbamoylisoxazol-5-ylmethyl 2-[5′-(4-fluorophenyl)-3,4,5,6-tetrahydro-2H-[1,2′]bipyridinyl-4-yl]ethylcarbamate]	1	202 to 204	30
Cn1ccc(COC(=O)NCCCC2CCN(c3nccc(C(F)(F)F)n3)CC2)n1 [Compound 52]	28	–	–
CC(C)c1nc(COC(=O)NCC2CCN(c3nnc(Cl)c4ccccc34)CC2)no1 [Compound 59, 5-isopropyl[1,2,4]oxadiazol-3-ylmethyl [1-(4-chlorophthalazin-1-yl)piperidin-4-yl]methylcarbamate]	–	139 to 141	–
CNC(=O)c1cc(COC(=O)NCCC2CCN(c3ccc4cc(F)ccc4n3)CC2)on1 [Compound 25, 3-methylcarbamoylisoxazol-5-ylmethyl 2-[1-(6-fluoroquinolin-2-yl)piperidin-4-yl]ethylcarbamate]	–	180 to 182	–
Cn1ccnc1C(OC(=O)NCCC1CCN(c2ccc3cc(Cl)ccc3n2)CC1)C(F)(F)F (racemic) [Compound 73, 2,2,2-trifluoro-1-(1-methyl-1H-imidazol-2-yl)ethyl {2-[1-(6-chloroquinolin-2-yl)piperidin-4-yl]ethyl}carbamate]	–	196 to 198	–
CC(C)c1noc(COC(=O)NCCC2CCN(c3ccc(-c4ccc(F)cc4)cn3)CC2)n1 [Compound 7, 3-isopropyl[1,2,4]oxadiazol-5-ylmethyl 2-[5′-(4-fluorophenyl)-3,4,5,6-tetrahydro-2H-[1,2′]bipyridinyl-4-yl]-ethylcarbamate]	–	96 to 98	–
CNC(=O)c1cc(COC(=O)NCCC2CCN(c3cncc(-c4ccc(F)cc4)n3)CC2)on1 [Compound 32, 3-methylcarbamoylisoxazol-5-ylmethyl 2-{1-[6-(4-fluorophenyl)pyrazin-2-yl]piperidin-4-yl}ethylcarbamate]	–	150 to 152	–
NC(=O)c1cc(COC(=O)NCCC2CCN(c3nccc(C(F)(F)F)n3)CC2)on1 [Compound 38]	2	–	–
CNC(=O)c1cc(COC(=O)NCC2CCN(c3nnc(Cl)c4ccccc34)C2)on1 (racemic) [Compound 79, 3-methylcarbamoylisoxazol-5-ylmethyl (±)[1-(4-chlorophthalazin-1-yl)pyrrolidin-3-ylmethyl]carbamate]	–	159 to 161	–
COc1ccc(-c2nnc(COC(=O)NCCC3CCN(c4ccc5cc(Cl)ccc5n4)CC3)o2)cc1 [Compound 14, 5-(4-methoxyphenyl)[1,3,4]oxadiazol-2-ylmethyl 2-[1-(6-chloroquinolin-2-yl)piperidin-4-yl]ethylcarbamate]	–	154 to 156	–
O=C(NCCC1CCN(c2ccc3cc(Cl)ccc3n2)CC1)OCc1nnc(-c2ccc(Cl)cc2)o1 [Compound 13, 5-(4-chlorophenyl)[1,3,4]oxadiazol-2-ylmethyl 2-[1-(6-chloroquinolin-2-yl)piperidin-4-yl]ethylcarbamate]	–	152 to 153	–
CN(C)C1(CCNC(=O)OC(c2nccn2C)C(F)(F)F)CN(c2nnc(Cl)c3ccccc23)C1 (racemic) [Compound 63, 2,2,2-trifluoro-1-(1-methyl-1H-imidazol-2-yl)ethyl {2-[1-(4-chlorophthalazin-1-yl)-3-dimethylaminoazetidin-3-yl]ethyl}-carbamate]	–	168 to 170	–
Cn1ccc(COC(=O)NCCC2CCN(c3ccc(-c4ccc(F)cc4)cn3)CC2)n1 [Compound 8, 1-methyl-1H-pyrazol-3-ylmethyl 2-[5′-(4-fluorophenyl)-3,4,5,6-tetrahydro-2H-[1,2′]bipyridinyl-4-yl]ethylcarbamate]	–	154 to 156	–
CC(C)c1nc(COC(=O)NCC2CCN(c3nccc4ccccc34)CC2)no1 [Compound 67, 5-isopropyl[1,2,4]oxadiazol-3-ylmethyl (1-isoquinolin-1-ylpiperidin-4-ylmethyl)carbamate]	–	95 to 97	–
CNC(=O)c1cc(COC(=O)NCCC2(C)CCN(c3cnc4cc(Cl)ccc4n3)CC2)on1 [Compound 78, 3-methylcarbamoylisoxazol-5-ylmethyl {2-[1-(6-chloroquinoxalin-2-yl)-4-methylpiperidin-4-yl]ethyl}carbamate]	–	167 to 169	–
CNC(=O)c1cc(COC(=O)NC2CCN(c3nnc(Cl)c4ccccc34)CC2)on1 [Compound 75, 3-methylcarbamoylisoxazol-5-ylmethyl [1-(4-chlorophthalazin-1-yl)piperidin-4-yl]carbamate]	–	208 to 210	–
CNC(=O)c1cc(COC(=O)NCCC2CCN(c3ccc4cc(Cl)ccc4n3)CC2)on1 [Compound 20, 3-methylcarbamoylisoxazol-5-ylmethyl 2-[1-(6-chloroquinolin-2-yl)piperidin-4-yl]ethylcarbamate]	–	200 to 202	–
NC(=O)c1cc(COC(=O)NCCC2CCN(c3ccc(-c4ccc(F)cc4)nn3)CC2)on1 [Compound 41]	0.6	–	–
NC(=O)c1cc(COC(=O)NCCC2CCN(c3cnc(-c4ccc(F)cc4)cn3)CC2)on1 [Compound 68, 3-carbamoylisoxazol-5-ylmethyl (2-{1-[5-(4-fluorophenyl)-pyrazin-2-yl]piperidin-4-yl}ethyl)carbamate]	–	187 to 189	–
O=C(NCCC1CCN(c2ccc3cc(Cl)ccc3n2)CC1)OCc1cc(-c2ccc(Cl)cc2)no1 [Compound 3, 3-(4-chlorophenyl)isoxazol-5-ylmethyl 2-[1-(6-chloroquinolin-2-yl)piperidin-4-yl]ethylcarbamate]	–	139 to 140	–
